According to ChEMBL document CHEMBL1201862, “PubChem BioAssay data set” (2004):
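Method: 48-hour compound exposure of cells in 96-well plates, five concentrations, linear interpolation of endpoints. The concentration for 50% growth inhibition is given as GI50.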 Active and inactive are the calls of the source. No stated cut-off is given here; in the data, active = GI50 up to about 1.1 µM and inactive = higher.

Columns and labels:
Assay in all cases: NCI anticancer screen, dose series, 48 h
HCT-15 = tested on: HCT-15
OVCAR-3 = tested on: OVCAR-3
HOP-62 = tested on: HOP-62
MOLT-4 = tested on: MOLT-4
NCI-H226 = tested on: NCI-H226
KM12 = tested on: KM12
ACHN = tested on: ACHN
TK-10 = tested on: TK-10
PC-3 = tested on: PC-3
OVCAR-5 = tested on: OVCAR-5
SNB-19 = tested on: SNB-19
HOP-92 = tested on: HOP-92
HL-60 = tested on: HL-60
COLO 205 = tested on: COLO 205
IGROV-1 = tested on: IGROV-1
UACC-62 = tested on: UACC-62
SW-620 = tested on: SW-620

| Structure (SMILES) | GI50 (HCT-15) [µM] | GI50 (OVCAR-3) | GI50 (HOP-62) | GI50 (MOLT-4) | GI50 (NCI-H226) | GI50 (KM12) | GI50 (ACHN) | GI50 (TK-10) | GI50 (PC-3) | GI50 (OVCAR-5) | GI50 (SNB-19) | GI50 (HOP-92) | GI50 (HL-60) | GI50 (COLO 205) | GI50 (IGROV-1) | GI50 (UACC-62) | GI50 (SW-620) |
| --- | --- | --- | --- | --- | --- | --- | --- | --- | --- | --- | --- | --- | --- | --- | --- | --- | --- |
| C=CCn1c(=O)ccn(/C(=C/C(=O)OCC)C(=O)OCC)c1=O | 1.83 | 5.66 µM (inactive) | 20.9 µM (inactive) | 2.99 µM (inactive) | 13.9 µM (inactive) | 17.5 µM (inactive) | 3.72 µM (inactive) | 11.9 µM (inactive) | 14.6 µM (inactive) | 15.6 µM (inactive) | 29.4 µM (inactive) | 2.36 µM (inactive) | 1.76 µM (inactive) | 1.74 µM (inactive) | 15.3 µM (inactive) | 15.7 µM (inactive) | 2.18 µM (inactive) |
| CCOC(=O)/C1=C(\C)N(c2ccc(C)cc2)C(=O)c2ccccc2C(=O)c2c(O)ccc(O)c21 | 14.4 | 17.8 µM (inactive) | 20.7 µM (inactive) | 14.5 µM (inactive) | 42.4 µM (inactive) | 23 µM (inactive) | 14.2 µM (inactive) | 26.2 µM (inactive) | 24.7 µM (inactive) | 30.2 µM (inactive) | 47.5 µM (inactive) | 22.7 µM (inactive) | 19.1 µM (inactive) | 20.1 µM (inactive) | 18.9 µM (inactive) | 28 µM (inactive) | 27.6 µM (inactive) |
| CCOc1ccc(C(c2c(O)c3ccccc3oc2=O)c2c(O)c3ccccc3oc2=O)cc1 | 65.5 | 43.8 µM (inactive) | 61.5 µM (inactive) | 33.6 µM (inactive) | 95.9 µM (inactive) | 56.9 µM (inactive) | 74.6 µM (inactive) | 49.5 µM (inactive) | 29.6 µM (inactive) | > 100 µM (inactive) | 91 µM (inactive) | 23.6 µM (inactive) | 19.9 µM (inactive) | > 100 µM (inactive) | > 100 µM (inactive) | 38.7 µM (inactive) | 79.4 µM (inactive) |
| CCCSc1ccc2[nH]c(N3C(=O)/C(=C/c4ccc(SC)cc4)N=C3c3ccccc3)cc2c1 | 22.1 | 24.6 µM (inactive) | 42.6 µM (inactive) | 1.87 µM (inactive) | > 50 µM (inactive) | 11 µM (inactive) | > 50 µM (inactive) | 29 µM (inactive) | 25.9 µM (inactive) | > 50 µM (inactive) | 29.1 µM (inactive) | > 50 µM (inactive) | 9.14 µM (inactive) | 14.2 µM (inactive) | 29.2 µM (inactive) | 24.7 µM (inactive) | 18.5 µM (inactive) |
| CN(C)Cc1cc(/N=N/c2ccccc2Cl)cc(CN(C)C)c1O | > 100 | 21.4 µM (inactive) | 6.67 µM (inactive) | 20.5 µM (inactive) | > 100 µM (inactive) | 77.6 µM (inactive) | > 100 µM (inactive) | > 100 µM (inactive) | 33.5 µM (inactive) | 46.9 µM (inactive) | > 100 µM (inactive) | 21.5 µM (inactive) | 20.8 µM (inactive) | 20.5 µM (inactive) | 58.1 µM (inactive) | 26.2 µM (inactive) | 90.2 µM (inactive) |
| C/C=C/[C@H]1O[C@@](OC)([C@@H](C)[C@H](O)[C@H](C)[C@H]2OC(=O)/C(OC)=C/C(C)=C/[C@@H](C)[C@@H](O)[C@@H](C)[C@@H](O)[C@H](C)C/C(C)=C/C=C/[C@@H]2OC)CC(OC2CC(O)C(OC(N)=O)C(C)O2)[C@@H]1C (some centres not stated) | < 0.01 | < 0.01 µM (active) | < 0.01 µM (active) | < 0.01 µM (active) | < 0.01 µM (active) | < 0.01 µM (active) | < 0.01 µM (active) | 8.79 µM (inactive) | < 0.01 µM (active) | 1.82 µM (inactive) | 2.9 µM (inactive) | 0.103 µM (active) | < 0.01 µM (active) | < 0.01 µM (active) | < 0.01 µM (active) | < 0.01 µM (active) | < 0.01 µM (active) |
